Test results taken from US3976545A, “1,2,4-Triazol E-3-carboxamides as antiviral agents” (ICN Pharmaceuticals, Inc., priority 1975, dated 1976).
Like-named read-outs stand apart in the source and are kept apart here.

Tests used:
Nucleoside Phosphorylase = molecular target: T1, Nucleoside Phosphorylase (Bos taurus, UniProt P55859); test: Nucleoside Phosphorylase assay (conversion of 1,2,4-triazole-3-carboxamide to its 1-β-D-ribofuranosyl nucleoside); format: biochemical, calf (spleen); settings: pH 7.4, 25°, 5 minutes
T1 construct: purchased Sigma Chemical Co., St. Louis, Mo; host or cells: calf spleen
T1 sequence (P55859 1-289): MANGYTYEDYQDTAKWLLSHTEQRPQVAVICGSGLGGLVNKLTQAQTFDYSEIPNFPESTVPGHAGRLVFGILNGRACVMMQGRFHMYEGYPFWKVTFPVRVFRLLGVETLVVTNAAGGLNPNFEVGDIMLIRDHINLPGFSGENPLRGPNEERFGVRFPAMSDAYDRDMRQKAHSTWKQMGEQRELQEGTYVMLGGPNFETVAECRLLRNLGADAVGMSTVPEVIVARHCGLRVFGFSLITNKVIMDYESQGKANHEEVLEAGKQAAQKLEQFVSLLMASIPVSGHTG
Method: 1,2,4-Triazole-3-carboxamide may be converted to 1-β-D-ribofuranosyl- 1,2,4-triazole-3-carboxamide by reaction with the enzyme Nucleoside Phosphorylase at a pH within the range of about 5 to about 9, preferably 7 to 8, at an enzyme concentration of from about 0.015 to about 0.75 mg/ml, preferably about 0.15 mg/ml, and a temperature within the range of about 0° to about 50°C, with the preferred temperature being approximately 25° to about 35°C. Satisfactory results have been obtained when the triazole base is present in a concentration greater than 5×10^^-5 M and ribose-1-phosphate is present at a concentration greater than 2×10^^-5 M. Generally about 0.1 to about 2 hours, preferably about 0.5 to about 1 hour, are required for the reaction. The source of the enzyme may be animal, tissue, or bacteria. The principal bacterial sources are E. coli and […], while a variety of animal sources exist, including beef spleen, rat liver, calf liver, calf thymus, beef liver, monkey brain, horse liver, calf spleen, human erythrocytes, fish skin, and fish muscle. […]
The samples were incubated at 25° for 5 minutes and then frozen in dry ice - isopropanol to stop the reaction. […] Areas of the chromatograms coinciding with 1,2,4-triazole-3-carboxamide were removed and counted to determine the percent of conversion of 1,2,4 -triazole-3-carboxamide to 1-β-D-ribofuranosyl-1,2,4-triazole-3-carboxamide.

Type 1 Herpes = test: CPE inhibition in KB cells, Type 1 Herpes; format: cell-based; settings: VR >0.5 significant, <0.5 slight activity
Method: (§1) They were tested for activity using the virus-induced cytopathogenic effect (CPE) method of Sidwell, et al., (Applied Microbiology 22:797-801, 1971). Briefly, the CPE procedure includes the dissolution of the antiviral agent in a cell culture medium consisting of vitamins, amino acids, serum, buffer, penicillin, streptomycin and indicator dye in water. The virus suspended in the cell culture medium was added to an established monolayer of KB cells, and an equal volume of the antiviral agent was then added within 15 minutes. The infected treated cells were graded following microscopic examination. Controls for each experiment include cell controls (cells and cell culture medium only), virus controls (cells and virus and cell culture medium) and toxicity controls (cells and chemical and cell culture medium).
(§2) The virus rating (VR) system of Sidwell et al, described in Applied Microbiology, supra, was used to evaluate the degree of significance of CPE inhibition.

Type 2 Herpes = test: CPE inhibition in KB cells, Type 2 Herpes; format: cell-based; settings: VR >0.5 significant, <0.5 slight activity
Method: as §1, §2

Vaccinia = format: cell-based; settings: KB cells, VR >0.5 significant, <0.5 slight activity
Type 1A Rhino = test: CPE inhibition in KB cells, Type 1A Rhino; format: cell-based; settings: VR >0.5 significant, <0.5 slight activity
Method: as §1, §2

Type 13 Rhino = test: CPE inhibition in KB cells, Type 13 Rhino; format: cell-based; settings: VR >0.5 significant, <0.5 slight activity
Method: as §1, §2

Type 8 Rhino = test: CPE inhibition in KB cells, Type 8 Rhino; format: cell-based; settings: VR >0.5 significant, <0.5 slight activity
Method: as §1, §2

Type 56 Rhino = test: CPE inhibition in KB cells, Type 56 Rhino; format: cell-based; settings: VR >0.5 significant, <0.5 slight activity
Method: as §1, §2

Type 3 Parainfluenza = test: CPE inhibition in KB cells, Type 3 Parainfluenza; format: cell-based; settings: VR >0.5 significant, <0.5 slight activity
Method: as §1, §2

Measles = Measles virus plaque inhibition (agar overlay); format: cell-based; settings: Measles morbillivirus, 96 h, day 4; for inhibition at 20 µg/mL: 20 μg/ml; for inhibition at 100 µg/mL: 100 μg/ml; for inhibition at 500 µg/mL: 500 μg/ml
Text: In experiments with measles virus, the above method was altered in that the infected cells were covered with an agar-serum-bicarbonate overlay containing the antiviral compounds so that viral plaques could be discerned. These plaques were strained with neutral red dye on day 4 and counted, with any reduction in plaque number resulting from exposure to the antiviral compound determined. The methodology for the experiment is as described by Wear et al (Exptl. and Molecular Pathol. 9:405-417, 1968).

influenza A2 virus = format: in vivo, Female Swiss Mice; settings: for Average Lung Consolidation: Day 25, scale of 0-4; for effectiveness against influenza virus: summary in words
mice = settings: for MST / Survivors Per Total / Average Lung Consolidation / HA Titer Per ml: Drug + MEM; for Average Lung Consolidation: Day 25, scale of 0-4; for HA Titer Per ml: lung homogenates Day 25
in vitro = settings: human, kb cells
[1] = Compound 1, 250 mg/kg/day ip, Drug + Virus, schedule 1
[2] = Compound 1, 500 mg/kg/day ip, Drug + Virus, schedule 1
[3] = Compound 1, 1000 mg/kg/day ip, Drug + Virus, schedule 1
[4] = Compound 1, 250 mg/kg/day ip, schedule 1
[5] = Compound 1, 500 mg/kg/day ip, schedule 1
[6] = Compound 1, 1000 mg/kg/day ip, schedule 1
[7] = Compound 2, 75 mg/kg/day ip, Drug + Virus, schedule 1
[8] = Compound 2, 250 mg/kg/day ip, Drug + Virus, schedule 3
[9] = Compound 2, 500 mg/kg/day ip, Drug + Virus, schedule 3
[10] = Compound 2, 1000 mg/kg/day ip, Drug + Virus, schedule 2
[11] = Compound 2, 250 mg/kg/day ip, schedule 3
[12] = Compound 2, 500 mg/kg/day ip, schedule 3
[13] = Compound 2, 1000 mg/kg/day ip, schedule 2

NC(=O)c1nc[nH]n1 [Compound 1, 1,2,4-Triazole-3-carboxamide]
% Conversion (Nucleoside Phosphorylase; - enzyme): 0.8%
% Conversion (Nucleoside Phosphorylase; - ribose-1-P, + enzyme, 80μg): 1.1%
Virus Rating (Type 1 Herpes): 0.6-0.9
Virus Rating (Type 2 Herpes): 0.4
Virus Rating (Vaccinia): 0.8
Virus Rating (Type 1A Rhino): 0.4-0.5
Virus Rating (Type 13 Rhino): 0.3
Virus Rating (Type 8 Rhino): 0.2
Virus Rating (Type 56 Rhino): 0.3
Virus Rating (Type 3 Parainfluenza): 0.5-0.7
inhibition at 20 µg/mL (Measles): 34%
inhibition at 100 µg/mL (Measles): 97%
inhibition at 500 µg/mL (Measles): 99%
MST (influenza A2 virus; [1]): 17.5 days
Survivors Per Total (influenza A2 virus; Compound 1, 250 mg/kg/day ip, Drug + Virus, schedule 1 (P<0.05)): 8/10
Average Lung Consolidation (influenza A2 virus; [1]): 1.4
MST (influenza A2 virus; [2]): 12.0 days
Survivors Per Total (influenza A2 virus; Compound 1, 500 mg/kg/day ip, Drug + Virus, schedule 1 (P<0.1)): 7/10
Average Lung Consolidation (influenza A2 virus; [2]): 2.5
MST (influenza A2 virus; [3]): 15 days
Survivors Per Total (influenza A2 virus; Compound 1, 1000 mg/kg/day ip, Drug + Virus, schedule 1 (P<0.05)): 8/10
Average Lung Consolidation (influenza A2 virus; [3]): 2.0
HA Titer Per ml (influenza A2 virus; Compound 1, 1000 mg/kg/day ip, Drug + Virus, schedule 1, lung homogenates Day 25): 1.3
effectiveness against influenza virus (influenza A2 virus): particularly effective against influenza virus
MST (mice; [4]): > 21.0 days
Survivors Per Total (mice; [4]): 5/5
MST (mice; [5]): > 21.0 days
Survivors Per Total (mice; [5]): 5/5
MST (mice; [6]): > 21 days
Survivors Per Total (mice; [6]): 5/5
toxicity to mice (mice; concentrations as high as 1000 mg/kg/day, intraperitoneally twice daily for 9 days): nontoxic
MCC (in vitro): 32 to 1000 µg/mL

NC(=S)c1nc[nH]n1 [Compound 2, 1,2,4-Triazole-3-thiocarboxamide]
Virus Rating (Type 1 Herpes): 0.4-0.8
Virus Rating (Type 2 Herpes): 0.3
Virus Rating (Vaccinia): 0.5
Virus Rating (Type 1A Rhino): 0.2-0.4
Virus Rating (Type 13 Rhino): 0.4
Virus Rating (Type 8 Rhino): 0.3
Virus Rating (Type 56 Rhino): 0.4
Virus Rating (Type 3 Parainfluenza): 0.2-0.4
inhibition at 20 µg/mL (Measles): 5%
inhibition at 100 µg/mL (Measles): 98%
inhibition at 500 µg/mL (Measles): 100%
MST (influenza A2 virus; [7]): > 21.0 days
Survivors Per Total (influenza A2 virus; Compound 2, 75 mg/kg/day ip, Drug + Virus, schedule 1 (P<0.001)): 10/10
Average Lung Consolidation (influenza A2 virus; [7]): 1.0
MST (influenza A2 virus; [8]): 9.2 days
Survivors Per Total (influenza A2 virus; Compound 2, 250 mg/kg/day ip, Drug + Virus, schedule 3 (P<0.2)): 6/10
Average Lung Consolidation (influenza A2 virus; [8]): 3.6
MST (influenza A2 virus; [9]): 7.6 days
Survivors Per Total (influenza A2 virus; Compound 2, 500 mg/kg/day ip, Drug + Virus, schedule 3 (P>0.3)): 5/10
Average Lung Consolidation (influenza A2 virus; [9]): 2.2
MST (influenza A2 virus; [10]): 8.3 days
Survivors Per Total (influenza A2 virus; Compound 2, 1000 mg/kg/day ip, Drug + Virus, schedule 2 (P>0.3)): 3/10
Average Lung Consolidation (influenza A2 virus; [10]): 3.7
effectiveness against influenza virus (influenza A2 virus): particularly effective against influenza virus
MST (mice; [11]): > 21.0 days
Survivors Per Total (mice; [11]): 5/5
Average Lung Consolidation (mice; [11]): 0.5
HA Titer Per ml (mice; [11]): 0
MST (mice; [12]): 9.0 days
Survivors Per Total (mice; [12]): 4/5
Average Lung Consolidation (mice; [12]): 2.0
HA Titer Per ml (mice; [12]): 0
MST (mice; [13]): 4.2 days
Survivors Per Total (mice; [13]): 0/5
toxicity to mice (mice; concentrations as low as 250 mg/kg/day, intraperitoneally, same treatment regimen (twice daily for 9 days)): moderately toxic as evidenced by weight loss and death
MCC (in vitro): ≥ 1 µg/mL

NC(=O)c1ncn([C@@H]2O[C@H](CO)[C@@H](O)[C@H]2O)n1 [Compound 3, 1-β-D-Ribofuranosyl-1,2,4-triazole-3-carboxamide]
Virus Rating (Type 1 Herpes): 1.0-1.5
Virus Rating (Type 2 Herpes): 1.3
Virus Rating (Vaccinia): 0.9-1.0
Virus Rating (Type 1A Rhino): 0.6
Virus Rating (Type 13 Rhino): 0.5
Virus Rating (Type 8 Rhino): 0.8
Virus Rating (Type 56 Rhino): 0.9
Virus Rating (Type 3 Parainfluenza): 0.6-1.0
inhibition at 20 µg/mL (Measles): 30%
inhibition at 100 µg/mL (Measles): 94%
inhibition at 500 µg/mL (Measles): 100%
